{"source": "ChEMBL document CHEMBL1150031", "about": "“The first selective antagonist for a GABAC receptor” (Bioorg Med Chem Lett, 1996)", "key": {"[1]": {"molecular_target": "GABA B receptor (Rattus norvegicus, UniProt O88871+Q9Z0U4)", "sequence (Q9Z0U4 whole entry)": "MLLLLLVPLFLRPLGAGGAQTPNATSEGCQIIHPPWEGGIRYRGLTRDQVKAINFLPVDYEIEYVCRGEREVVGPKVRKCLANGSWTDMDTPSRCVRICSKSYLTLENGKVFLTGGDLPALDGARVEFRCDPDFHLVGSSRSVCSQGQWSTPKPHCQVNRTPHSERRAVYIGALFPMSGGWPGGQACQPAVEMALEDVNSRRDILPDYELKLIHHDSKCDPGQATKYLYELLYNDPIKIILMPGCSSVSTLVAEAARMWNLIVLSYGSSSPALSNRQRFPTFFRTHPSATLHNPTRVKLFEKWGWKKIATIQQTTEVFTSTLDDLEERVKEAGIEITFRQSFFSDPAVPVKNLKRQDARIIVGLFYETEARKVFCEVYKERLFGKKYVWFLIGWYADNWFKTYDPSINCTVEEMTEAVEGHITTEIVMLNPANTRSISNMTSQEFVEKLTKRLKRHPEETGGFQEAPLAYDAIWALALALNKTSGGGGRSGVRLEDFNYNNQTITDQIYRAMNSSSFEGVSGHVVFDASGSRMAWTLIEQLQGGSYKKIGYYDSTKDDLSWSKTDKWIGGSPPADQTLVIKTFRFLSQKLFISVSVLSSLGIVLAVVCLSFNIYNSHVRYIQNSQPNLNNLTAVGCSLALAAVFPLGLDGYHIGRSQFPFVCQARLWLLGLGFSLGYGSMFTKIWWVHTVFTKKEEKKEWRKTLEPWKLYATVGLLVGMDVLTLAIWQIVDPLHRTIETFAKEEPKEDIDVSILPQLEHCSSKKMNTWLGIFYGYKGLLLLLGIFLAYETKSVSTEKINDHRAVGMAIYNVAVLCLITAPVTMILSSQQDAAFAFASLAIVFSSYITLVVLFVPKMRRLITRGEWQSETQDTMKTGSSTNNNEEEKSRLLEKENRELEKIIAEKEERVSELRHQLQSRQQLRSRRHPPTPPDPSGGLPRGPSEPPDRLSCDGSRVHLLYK", "sequence (O88871 whole entry)": "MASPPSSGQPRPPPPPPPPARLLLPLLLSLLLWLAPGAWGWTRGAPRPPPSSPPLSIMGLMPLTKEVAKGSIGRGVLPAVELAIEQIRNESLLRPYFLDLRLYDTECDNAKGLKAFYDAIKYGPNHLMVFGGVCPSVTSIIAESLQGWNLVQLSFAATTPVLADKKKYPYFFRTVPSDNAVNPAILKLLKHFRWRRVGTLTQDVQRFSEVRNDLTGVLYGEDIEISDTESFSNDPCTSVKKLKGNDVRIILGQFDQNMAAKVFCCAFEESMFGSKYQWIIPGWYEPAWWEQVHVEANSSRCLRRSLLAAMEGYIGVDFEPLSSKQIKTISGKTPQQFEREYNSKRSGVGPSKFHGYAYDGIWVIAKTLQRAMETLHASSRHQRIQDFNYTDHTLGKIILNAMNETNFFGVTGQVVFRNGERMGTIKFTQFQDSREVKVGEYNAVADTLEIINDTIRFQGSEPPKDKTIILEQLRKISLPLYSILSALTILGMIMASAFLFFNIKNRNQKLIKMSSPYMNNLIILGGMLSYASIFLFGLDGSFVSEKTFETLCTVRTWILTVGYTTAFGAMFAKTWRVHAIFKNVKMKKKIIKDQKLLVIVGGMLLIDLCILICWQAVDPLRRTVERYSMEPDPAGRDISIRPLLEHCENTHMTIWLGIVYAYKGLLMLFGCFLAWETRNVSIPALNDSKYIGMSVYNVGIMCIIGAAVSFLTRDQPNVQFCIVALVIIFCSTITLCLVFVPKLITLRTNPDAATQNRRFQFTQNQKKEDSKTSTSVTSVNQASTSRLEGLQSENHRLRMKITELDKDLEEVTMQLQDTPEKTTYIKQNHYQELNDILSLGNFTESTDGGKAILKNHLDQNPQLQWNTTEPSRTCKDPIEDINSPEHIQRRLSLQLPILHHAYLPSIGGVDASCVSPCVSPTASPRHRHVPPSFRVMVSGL", "test": "Inhibition of rat hippocampal Gamma-aminobutyric acid type B receptor (weak agonist)", "format": "functional, tissue-based, Hippocampus"}, "[2]": {"test": "Inhibition of rat brain Gamma-aminobutyric acid A (GABA-A) receptor expressed in oocytes, weak antagonist", "format": "functional", "settings": "Oocyte"}, "[3]": {"molecular_target": "T1, GABA-C receptor (Homo sapiens) (UniProt P28476+A8MPY1+P24046)", "T1 sequence (A8MPY1 whole entry, looked up)": "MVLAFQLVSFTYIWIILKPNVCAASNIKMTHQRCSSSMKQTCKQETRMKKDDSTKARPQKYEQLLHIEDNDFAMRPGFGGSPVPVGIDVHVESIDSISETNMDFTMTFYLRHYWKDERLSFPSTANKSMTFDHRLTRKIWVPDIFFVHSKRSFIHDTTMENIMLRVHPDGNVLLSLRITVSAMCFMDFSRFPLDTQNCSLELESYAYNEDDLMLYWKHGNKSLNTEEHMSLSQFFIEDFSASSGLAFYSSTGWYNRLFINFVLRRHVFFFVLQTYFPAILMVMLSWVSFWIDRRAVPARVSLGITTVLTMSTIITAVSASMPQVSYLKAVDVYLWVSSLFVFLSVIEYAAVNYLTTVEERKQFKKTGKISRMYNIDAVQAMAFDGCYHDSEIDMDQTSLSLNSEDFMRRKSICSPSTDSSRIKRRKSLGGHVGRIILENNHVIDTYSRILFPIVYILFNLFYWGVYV", "T1 sequence (P24046 whole entry, looked up)": "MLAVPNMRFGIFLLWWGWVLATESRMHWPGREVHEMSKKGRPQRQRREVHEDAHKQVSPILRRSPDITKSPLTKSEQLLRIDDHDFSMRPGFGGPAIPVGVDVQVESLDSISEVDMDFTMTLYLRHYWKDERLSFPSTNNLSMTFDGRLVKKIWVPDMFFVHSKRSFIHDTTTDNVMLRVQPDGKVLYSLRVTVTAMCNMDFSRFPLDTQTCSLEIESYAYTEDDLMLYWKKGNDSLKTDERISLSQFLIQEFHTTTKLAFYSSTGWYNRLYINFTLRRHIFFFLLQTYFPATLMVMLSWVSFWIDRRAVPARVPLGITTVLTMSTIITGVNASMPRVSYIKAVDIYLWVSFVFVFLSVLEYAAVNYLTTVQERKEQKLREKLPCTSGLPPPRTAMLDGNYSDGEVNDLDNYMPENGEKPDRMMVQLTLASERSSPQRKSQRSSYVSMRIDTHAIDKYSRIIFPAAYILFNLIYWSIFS", "T1 sequence (P28476 whole entry, looked up)": "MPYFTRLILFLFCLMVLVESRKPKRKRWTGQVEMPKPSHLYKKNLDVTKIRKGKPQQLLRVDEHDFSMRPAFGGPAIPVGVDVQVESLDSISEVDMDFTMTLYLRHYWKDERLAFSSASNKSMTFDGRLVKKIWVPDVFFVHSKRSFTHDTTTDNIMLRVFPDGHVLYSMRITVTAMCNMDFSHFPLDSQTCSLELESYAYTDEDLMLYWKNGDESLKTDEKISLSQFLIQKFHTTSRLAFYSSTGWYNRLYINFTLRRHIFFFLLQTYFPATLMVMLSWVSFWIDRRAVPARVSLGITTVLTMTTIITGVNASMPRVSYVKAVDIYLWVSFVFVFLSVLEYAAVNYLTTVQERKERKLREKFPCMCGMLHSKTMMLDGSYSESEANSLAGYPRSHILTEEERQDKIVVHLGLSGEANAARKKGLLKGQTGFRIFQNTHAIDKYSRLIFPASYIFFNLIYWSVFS", "test": "Inhibition of human Gamma-aminobutyric acid type C (GABA-C) receptor, potent antagonist", "format": "functional"}, "[4]": {"molecular_target": "GABA-B receptor (Homo sapiens) (UniProt Q9UBS5+O75899)", "test": "Inhibition of mammalian Gamma-aminobutyric acid type B receptor (Inactive)", "format": "protein-complex assay"}, "[5]": {"molecular_target": "T1, GABA-C receptor (Homo sapiens)", "test": "Inhibition of mammalian Gamma-aminobutyric acid type C (GABA-C) receptor, partial agonist", "format": "functional"}, "[6]": {"molecular_target": "GABA-A receptor; anion channel", "test": "Inhibition of mammalian Gamma-aminobutyric acid A (GABA-A) receptor, agonist", "format": "functional"}, "[7]": {"molecular_target": "T1, GABA-C receptor (Homo sapiens)", "test": "Inhibition of mammalian Gamma-aminobutyric acid type C (GABA-C) receptor, potent antagonist", "format": "functional"}, "[8]": {"molecular_target": "GABA-A receptor; anion channel (Homo sapiens) (UniProt P14867+P47870+P18507+P28472+P48169+Q99928+Q9UN88+P34903+O00591+O14764+Q8N1C3+P18505+P78334+P47869+P31644+Q16445)", "test": "Inhibition of mammalian Gamma-aminobutyric acid A (GABA-A) receptor (inactive)", "format": "protein-complex assay"}}, "note": "Active and inactive are the calls of the source. The rule behind the calls is not given here.", "data": [{"smiles": "CP(=O)(O)C1=CCNCC1", "values": [{"measurement": "EC50", "setting": "[1]", "result": 500, "unit": "µM"}, {"measurement": "Kb", "setting": "[2]", "result": 320, "unit": "µM"}, {"measurement": "Kb", "setting": "[3]", "result": 2.1, "unit": "µM"}]}, {"smiles": "O=C(O)C1=CCNCC1", "note": "[ISOGUVACINE]", "values": [{"measurement": "Activity", "setting": "[4]", "result": "inactive"}, {"measurement": "Kb", "setting": "[5]", "result": 99, "unit": "µM"}, {"measurement": "EC50", "setting": "[6]", "result": 310, "unit": "µM"}]}, {"smiles": "CP(=O)(O)CCCN", "values": [{"measurement": "Kb", "setting": "[7]", "result": 0.8, "unit": "µM"}, {"measurement": "Activity", "setting": "[8]", "result": "inactive"}]}]}
